Test system: A549 cells expressing SARS-CoV-2 spike protein fusing with A549 cells overexpressing hACE2
Format: cell-based, human

Compound	reduction of cell-cell fusion (in words)	decrease of cell attachment (cell-cell fusion) [%]
COc1cc(/C=C/C(=O)CC(=O)/C=C/c2ccc(O)c(OC)c2)ccc1O [Curcumin]	can reduce cell-cell fusion	–
Theaflavine-3′3-digallate	can reduce cell-cell fusion	–
Oc1ccc2c(c1)OC[C@]1(O)Cc3cc(O)c(O)cc3[C@H]21 [Brazilin]	can reduce cell-cell fusion	40

— patent publication US20220304976A1, “Method of simultaneously treating viral disease caused coronavirus, its variants and mutants using a pharmaceutical micronutrient composition” (priority 2021, published 2022)
